From ChEMBL document CHEMBL5226386, “Discovery and Biosynthesis of Glycosylated Cycloheximide from a Millipede-Associated Actinomycete” (J Nat Prod, 2023)
Converted amounts (≈) assume the structure as drawn.

Experiments:
[1] = tested on: Cryptococcus neoformans; assay: Antifungal activity against Cryptococcus neoformans H99 assessed as inhibition of fungal growth incubated for 24 hrs by agar diffusion method; format: functional
[2] = tested on: MCF7; assay: Cytotoxicity against human MCF7 cells assessed as reduction in cell viability incubated for 48 hrs by CCK-8 assay; format: functional, cell-based; details: MCF7, 48 h
[3] = tested on: A549; assay: Cytotoxicity against human A549 cells assessed as reduction in cell viability incubated for 48 hrs by CCK-8 assay; format: functional, cell-based; details: A549, 48 h
[4] = tested on: Saccharomyces cerevisiae; assay: Antifungal activity against Saccharomyces cerevisiae BY4741 assessed as inhibition of fungal growth incubated for 24 hrs by agar diffusion method; format: functional
[5] = tested on: HeLa; assay: Cytotoxicity against human HeLa cells assessed as reduction in cell viability incubated for 48 hrs by CCK-8 assay; format: functional, cell-based

SMILES | MIC [1] [µg/mL] | IC50 [2] [nM] | IC50 [3] [nM] | MIC [4] [µg/mL] | IC50 [5] [nM]
C[C@@H]1C/C(=C\CC2CC(=O)NC(=O)C2)C(=O)[C@@H](C)C1 | > 32 | > 20000 | > 20000 | > 32 | > 20000
Cc1cc(C)c(O[C@@H]2O[C@@H](C)[C@H](O)[C@@H](O)[C@H]2O)c(C(=O)CC2CC(=O)NC(=O)C2)c1 | > 32 | > 20000 | > 20000 | > 32 | > 20000
COc1cccc2c1C(=O)c1c(O)c3c(c(O)c1C2=O)C[C@@](O)(C(=O)CO)C[C@@H]3O[C@H]1C[C@H](N)[C@H](O)[C@H](C)O1 [DOXORUBICIN] | – | 970 | 600 | – | 90
C[C@@H]1C[C@@H]([C@H](O)CC2CC(=O)NC(=O)C2)C(=O)[C@@H](C)C1 [CYCLOHEXIMIDE] | 2 (≈ 7.11 µM) | 530 | 670 | 2 (≈ 7.11 µM) | 1000
C[C@@H]1C[C@@H]([C@@H](CC2CC(=O)NC(=O)C2)O[C@H]2O[C@H](CO)[C@@H](O)[C@H](O)[C@H]2O)C(=O)[C@@H](C)C1 | > 32 | > 20000 | > 20000 | > 32 | > 20000
